“Also recorded” adds a separate entry of the source.
Experiments:
[1] = target: T1, CDK4/CyclinD3 (Homo sapiens, UniProt P11802); experiment: In-vitro kinase inhibitory activity, CDK4/CyclinD3 (Caliper EZ Reader II mobility shift); assay type: biochemical; settings: CDK4/CyclinD3 20 nM, ATP 2 mM, Peptide 1 μM, 27° C., 180 min; read-out: IC50 (half maximal inhibitory concentration, nM) CDK4
T1 construct: purchased Wuxi Biortus Biosciences Co. Ltd
Method in brief: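 Compound was preincubated 10 min with CDK4/CyclinD3 in Tris pH 8.0 with 5 mM MgCl2, then peptide substrate and ATP were added for 180 min at 27 °C, and the reaction was stopped with EDTA. Substrate and product were separated by mobility shift. IC50 comes from non-linear dose-response fits, with at least two replicates.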

[2] = target: T2, CDK6/CyclinD3 (Homo sapiens, UniProt Q00534); experiment: In-vitro kinase inhibitory activity, CDK6/CyclinD3 (Caliper EZ Reader II mobility shift); assay type: biochemical; settings: CDK6/CyclinD3 20 nM, ATP 2 mM, Peptide 1 μM, 27° C., 120 min; read-out: IC50 (half maximal inhibitory concentration, nM) CDK6
T2 construct: purchased Wuxi Biortus Biosciences Co. Ltd
T2 sequence (Q00534 whole entry, species assumed): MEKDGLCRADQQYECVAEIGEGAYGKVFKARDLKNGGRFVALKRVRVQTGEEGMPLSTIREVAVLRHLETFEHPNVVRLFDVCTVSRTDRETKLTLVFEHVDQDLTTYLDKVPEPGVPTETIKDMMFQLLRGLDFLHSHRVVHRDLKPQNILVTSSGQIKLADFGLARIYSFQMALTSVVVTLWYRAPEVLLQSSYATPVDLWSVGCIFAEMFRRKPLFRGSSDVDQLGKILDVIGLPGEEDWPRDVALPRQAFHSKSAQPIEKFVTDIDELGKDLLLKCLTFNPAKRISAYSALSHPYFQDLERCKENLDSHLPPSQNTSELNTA
T2 sequence (P30281 whole entry partner, species assumed): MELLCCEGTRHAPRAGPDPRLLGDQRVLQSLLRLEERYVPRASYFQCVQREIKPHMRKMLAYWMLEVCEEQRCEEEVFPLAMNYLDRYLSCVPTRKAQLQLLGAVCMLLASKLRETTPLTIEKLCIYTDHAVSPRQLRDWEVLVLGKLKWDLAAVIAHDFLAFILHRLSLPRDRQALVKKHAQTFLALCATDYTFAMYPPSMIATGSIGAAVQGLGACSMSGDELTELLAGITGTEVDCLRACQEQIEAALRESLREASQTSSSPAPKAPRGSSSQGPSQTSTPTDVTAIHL
Method in brief: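 Compound was preincubated 10 min with CDK6/CyclinD3, then peptide substrate plus ATP was added and the reaction ran 120 min at 27° C. before EDTA stop. Substrate and phosphorylated product were separated by microfluidic mobility shift, at least two replicates. IC50 from non-linear regression of dose-response curves.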

[3] = target: CDK2 (Homo sapiens, UniProt P24941); experiment: In-vitro kinase inhibitory activity, CDK2 (selectivity); assay type: biochemical; settings: read-out: IC50 (half maximal inhibitory concentration, nM) CDK2
[4] = target: CDK9 (Homo sapiens, UniProt P50750); experiment: In-vitro kinase inhibitory activity, CDK9 (selectivity); assay type: biochemical; settings: read-out: IC50 (half maximal inhibitory concentration, nM) CDK9
CDK9, sequence (P50750 whole entry, species assumed): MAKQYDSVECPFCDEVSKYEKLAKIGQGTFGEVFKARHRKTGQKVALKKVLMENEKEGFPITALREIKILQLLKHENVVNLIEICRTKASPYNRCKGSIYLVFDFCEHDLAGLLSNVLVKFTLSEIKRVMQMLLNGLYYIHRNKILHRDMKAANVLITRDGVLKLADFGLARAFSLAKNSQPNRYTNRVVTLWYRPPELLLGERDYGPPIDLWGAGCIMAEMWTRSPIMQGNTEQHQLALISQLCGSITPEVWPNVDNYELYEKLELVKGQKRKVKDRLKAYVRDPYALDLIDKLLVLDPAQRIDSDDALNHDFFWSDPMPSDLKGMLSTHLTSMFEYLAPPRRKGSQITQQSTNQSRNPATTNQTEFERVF
CDK9, sequence (O60563 whole entry partner, species assumed): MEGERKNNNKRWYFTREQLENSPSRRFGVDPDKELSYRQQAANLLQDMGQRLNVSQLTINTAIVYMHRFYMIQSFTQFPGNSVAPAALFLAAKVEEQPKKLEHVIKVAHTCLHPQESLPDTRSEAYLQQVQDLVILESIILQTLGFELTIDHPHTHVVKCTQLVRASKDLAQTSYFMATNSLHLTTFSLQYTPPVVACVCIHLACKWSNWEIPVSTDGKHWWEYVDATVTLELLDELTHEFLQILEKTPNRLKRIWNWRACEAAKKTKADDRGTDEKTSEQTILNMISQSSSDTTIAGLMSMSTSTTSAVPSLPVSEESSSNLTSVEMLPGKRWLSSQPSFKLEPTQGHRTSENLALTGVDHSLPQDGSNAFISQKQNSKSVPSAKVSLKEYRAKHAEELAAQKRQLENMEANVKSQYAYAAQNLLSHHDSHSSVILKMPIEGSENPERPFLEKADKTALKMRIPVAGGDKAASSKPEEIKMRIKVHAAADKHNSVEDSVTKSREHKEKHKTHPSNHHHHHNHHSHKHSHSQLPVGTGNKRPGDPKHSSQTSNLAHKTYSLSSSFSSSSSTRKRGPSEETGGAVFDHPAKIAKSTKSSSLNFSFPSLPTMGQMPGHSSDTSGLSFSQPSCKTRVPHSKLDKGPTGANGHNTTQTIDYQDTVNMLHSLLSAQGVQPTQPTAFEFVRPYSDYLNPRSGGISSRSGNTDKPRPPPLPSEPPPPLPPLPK

[5] = target: T3, CRBN (Homo sapiens, UniProt Q96SW2); experiment: In-vitro inhibition assay of CRBN activity (fluorescence polarization, Cy5-Thalidomide); assay type: binding; settings: Cy5-Thalidomide 10 nM, CRBN 180 nM, 27° C., 60 min
T3 construct: purchased Wuxi Biortus Biosciences Co. Ltd
T3 sequence (Q96SW2 whole entry, species assumed): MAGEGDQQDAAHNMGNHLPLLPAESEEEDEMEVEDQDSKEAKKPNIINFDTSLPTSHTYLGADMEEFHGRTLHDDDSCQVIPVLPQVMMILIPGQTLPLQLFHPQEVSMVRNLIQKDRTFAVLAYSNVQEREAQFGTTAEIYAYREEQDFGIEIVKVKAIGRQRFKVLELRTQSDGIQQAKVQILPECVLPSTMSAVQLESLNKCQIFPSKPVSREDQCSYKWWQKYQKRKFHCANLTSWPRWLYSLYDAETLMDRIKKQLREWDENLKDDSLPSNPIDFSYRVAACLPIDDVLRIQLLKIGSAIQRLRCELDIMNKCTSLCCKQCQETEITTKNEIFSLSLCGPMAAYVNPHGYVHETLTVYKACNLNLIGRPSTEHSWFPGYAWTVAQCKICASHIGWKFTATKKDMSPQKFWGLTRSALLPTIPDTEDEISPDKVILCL
Procedure: The final volume for assay was 20 μL, and the reaction temperature was 27° C. CRBN was produced by Wuxi Biortus Biosciences Co. Ltd. The concentration of the kinase was determined by the optimization experiment, and the kinase was diluted with an assay buffer (50 mM Tris, pH 7.5, 100 mM NaCl, and 0.01% Pluronic acid) to obtain a corresponding kinase solution (2× concentration). The compound was dissolved in dimethyl sulfoxide (DMSO) to reach a concentration of 10 mM. […] 5 μL of the test compound solution was mixed with 5 μL of the substrate solution, and 10 μL of the kinase solution was added to the mixture. The mixture was incubated at 27° C. for 60 min. Each assay was conducted in at least two replicates. […].
The final concentrations of the reagents in the assay were as follows. […] The data of fluorescence polarization assay were read on TECAN infinite M1000. Data were calculated by using GraphPad Prism version 6.0, and IC50 values were obtained by adjusting the non-linear regression models of the dose response curves.

[6] = test system: human colon cancer COLO205 cells; experiment: Growth inhibition of tumor cells cultured in vitro, CellTiter-Glo, COLO205; assay type: cell-based; settings: for IC50: COLO205, 72 h, CellTiter-Glo; for inhibitory effect on human colon cancer COLO205 cells (in words): summary of the table
Method in brief: (§1)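 Cells were seeded at 6000/well, COLO205 in RPMI-1640 with 10% FBS and MCF-7 in MEM with 10% FBS plus 0.01 mg/mL insulin, and grown 24 h before dosing. Compound dilutions in medium (10 to 0.0015 μM/L before addition, DMSO <0.1%) were tested in triplicate for 72 h at 37° C. IC50 was derived from CellTiter-Glo luminescence.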

[7] = test system: human breast cancer MCF-7 cells; experiment: Growth inhibition of tumor cells cultured in vitro, CellTiter-Glo, MCF-7; assay type: cell-based; settings: for IC50: MCF-7, 72 h, CellTiter-Glo; for inhibitory effect on human breast cancer MCF-7 cells (in words): summary of the table
Method in brief: as §1

T1 sequence (P11802 whole entry, species assumed): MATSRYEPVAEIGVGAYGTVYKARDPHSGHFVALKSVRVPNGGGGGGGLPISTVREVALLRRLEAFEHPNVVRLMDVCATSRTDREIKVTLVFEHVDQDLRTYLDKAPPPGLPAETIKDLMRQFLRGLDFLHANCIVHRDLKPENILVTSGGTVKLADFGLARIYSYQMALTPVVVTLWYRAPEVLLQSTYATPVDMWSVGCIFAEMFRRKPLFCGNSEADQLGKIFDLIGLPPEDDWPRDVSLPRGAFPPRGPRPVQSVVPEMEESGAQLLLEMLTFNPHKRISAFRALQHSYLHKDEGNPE
T1 sequence (P30281 whole entry partner, species assumed): as the sequence (P30281 whole entry partner, species assumed) above

| Structure (SMILES) | IC50 [1] [nM] | IC50 [2] [nM] | IC50 [3] [nM] | IC50 [4] [nM] | IC50 [5] [nM] | IC50 ([6]; Homo sapiens, COLO 205, 72 h) [nM] | inhibitory effect on human colon cancer COLO205 cells (in words) [6] | IC50 ([7]; Homo sapiens, MCF7, 72 h) [nM] | inhibitory effect on human breast cancer MCF-7 cells (in words) [7] | IC50 ([6]; dihydrochloride) [nM] | inhibitory effect on human colon cancer COLO205 cells (in words) ([6]; dihydrochloride) | IC50 [7] [nM] |
| --- | --- | --- | --- | --- | --- | --- | --- | --- | --- | --- | --- | --- |
| CC(=O)c1c(C)c2cnc(Nc3ccc(N4CCN(CCN5CCC(C(=O)N6CCN(c7ccc8c(c7)CN([C@H]7CCC(=O)NC7=O)C8=O)CC6)CC5)CC4)cn3)nc2n(C2CCCC2)c1=O [Compound 8, (S)-3-(5-(4-(1-(2-(4-(6-((6-acetyl-8-cyclopentyl-5-methyl-7-oxo-7,8-dihydropyrido[2,3-d]pyrimidin-2-yl)amino)pyridin-3-yl)piperazin-1-yl)ethyl)piperidin-4-carbonyl)piperazin-1-yl)-1-oxoisoindolin-2-yl)piperidine-2,6-dione] | 19.9 | 16.1 | 9000 | 3810 | 1210 | 96.2 | relatively good inhibitory effects | 821 |  |  |  |  |
| CC(=O)c1c(C)c2cnc(Nc3ccc(N4CCN(CCN5CCC(CN6CCN(c7ccc8c(c7)CN(C7CCC(=O)NC7=O)C8=O)CC6)CC5)CC4)cn3)nc2n(C2CCCC2)c1=O.Cl.Cl.Cl (single isomer, unassigned) [Compound 4, 3-(5-(4-((1-(2-(4-(6-((6-acetyl-8-cyclopentyl-5-methyl-7-oxo-7,8-dihydropyrido[2,3-d]pyrimidin-2-yl)amino)pyridin-3-yl)piperazin-1-yl)ethyl)piperidin-4-yl)methyl)piperazin-1-yl)-1-oxoisoindolin-2-yl)piperidine-2,6-dione trihydrochloride] | 10.7 | 9.7 | > 10000 | 8640 | 2080 | 69.2 | relatively good inhibitory effects | 50.5 | relatively good inhibitory effects |  |  |  |
| CC(=O)c1c(C)c2cnc(Nc3ccc(N4CCN(CCCCN5CCC(CN6CCN(c7ccc8c(c7)CN(C7CCC(=O)NC7=O)C8=O)CC6)CC5)CC4)cn3)nc2n(C2CCCC2)c1=O (stereo not drawn) [Compound 5, 3-(5-(4-((1-(4-(4-(6-((6-acetyl-8-cyclopentyl-5-methyl-7-oxo-7,8-dihydropyrido[2,3-d]pyrimidin-2-yl)amino)pyridin-3-yl)piperazin-1-yl)butyl)piperidin-4-yl)methyl)piperazin-1-yl)-1-oxoisoindolin-2-yl)piperidine-2,6-dione] | 10 | 6.6 | 9910 | 5470 | 5280 | 291 |  | 30.4 | relatively good inhibitory effects |  |  |  |
| CC(=O)c1c(C)c2cnc(Nc3ccc(N4CCN(CCN5CCN(c6ccc7c(c6)CN(C6CCC(=O)NC6=O)C7=O)CC5)CC4)cn3)nc2n(C2CCCC2)c1=O.Cl.Cl (single isomer, unassigned) [Compound 2, 3-(5-(4-(2-(4-(6-((6-acetyl-8-cyclopentyl-5-methyl-7-oxo-7,8-dihydropyrido[2,3-d]pyrimidin-2-yl)amino)pyridin-3-yl)piperazin-1-yl)ethyl)piperazin-1-yl)-1-oxoisoindolin-2-yl)piperidine-2,6-dione dihydrochloride] | 36.8 | 22 | > 10000 | 8710 | 3000 |  |  |  |  | 25.5 | relatively good inhibitory effects; also recorded: the best inhibitory effect | > 10000 |
